Laboratory results published in publication PMC6273072, “Identification of a New Morpholine Scaffold as a P2Y12 Receptor Antagonist” (Molecules, 2016).
Where “and” joins values, the source holds several entries; their conditions need not be identical. Equal values may be shown once.

How the values were obtained:
[1] = tested on: ADP-induced platelet aggregation; assay: Inhibition of ADP-induced platelet aggregation, 96-well light transmission aggregometry; type: cell-based, human; conditions: for IC50: 20 μM ADP; for effect of pre-incubation / time on inhibition of ADP-induced platelet aggregation, in words: data not shown
Protocol: Platelets were isolated from 400 mL whole blood containing 56 mL of CPDA-1 anticoagulant purchased from Chung-Nam Blood Center (Daejeon, South Korea) by centrifugation at 260× g for 5 min. The resultant platelet-rich plasma was centrifuged at 370× g for 6 min, and the platelet pellet (10^9/mL) was resuspended in 45 mL plasma and stabilized by agitation for 1 h at 22 °C in blood reservoir. The product was used for experiments within 24 h. Platelet concentrate (PC) was transferred to a new 50-mL Falcon tube and the number of platelets was counted using the ABC Vet blood counter (ABX Diagnostics, Montpellier, France). A 30-mL volume of PCs from the same donor was centrifuged at 1500× g for 10 min at room temperature to obtain platelet-poor plasma (PPP). The platelet count was adjusted to 3–4 × 10^8/mL by diluting with PPP.
Inhibition of ADP-induced aggregation was assessed in a Costar 96-well flat-bottom plate (Sigma-Aldrich, St. Louis, MO, USA) at room temperature. A 188-µL volume of the diluted platelet was added to each well of the plate along with 2 µL of test compound dissolved in dimethyl sulfoxide (DMSO). The reagents were mixed by placing the plate on a shaker at 1050 rpm for 1 min. A 10-µL volume of 400 μM ADP (final concentration: 20 μM) was added to the wells, and after additional shaking at room temperature for 3 min, the absorption of the samples was read at 595 nm on a Softmax microplate reader (Molecular Devices, Sunnyvale, CA, USA). A dose-response curve was generated using serial dilutions of ADP by adding the vehicle DMSO instead of antagonists in order to calculate the half-maximal effective concentration (EC50) of ADP. Inhibition of aggregation was determined as the increase in absorption at 595 nm after 3 min of incubation relative to absorption values of control preparations (0 and 20 μM ADP without antagonists). Sigmoidal dose-response curves and half-maximal inhibitory concentration (IC50) were derived by non-linear regression analysis using Prism 5.01 software (GraphPad, San Diego, CA, USA).

rhP2Y12 receptor [2] = target: T1, rhP2Y12 receptor (Homo sapiens, UniProt Q9H244); assay: rhP2Y12 receptor binding assay with [3H]-2-MeSADP (HEK293T membranes); conditions: for IC50: 1 nM [3H]-2-MeSADP, HEK293T-rhP2Y12 membranes
T1 construct: expressed in transfected cells
Protocol: (§1) The pDisplay-human P2Y12 DNA clone and pDisplay-human P2Y13 DNA clone were stably expressed in HEK293T and COS-7 cells, respectively; recombinant human (rh)P2Y12- and rhP2Y13-expressing cells were resuspended in hypotonic buffer consisting of 10 mM HEPES, 10 mM NaCl, 1 mM EDTA, 1 mM EGTA (pH 7.4), and protease inhibitor cocktail. Following 15-min incubation on ice, cells were homogenized on ice using a glass/teflon homogenizer (1000 rpm, 10 strokes). The homogenate was centrifuged at 500 × g for 15 min and the supernatant was centrifuged at 100,000× g for 30 min. The membrane pellet was adjusted to 1 mg/mL with membrane buffer consisting of 10 mM HEPES, 5 mM KCl, and 130 mM NaCl (pH 7.4) and stored at −80 °C. A 100-μL volume of 0.2 mg/mL membrane protein was added to each well of a 96-well plate along with 25 μL of test compound and [3H]2-MeSADP or [3H]ADP for a total reaction volume of 0.15 mL/well. The plate was incubated for 1 h at room temperature. The reaction was terminated by passing the solution through a GF/B filter presoaked with 0.1% polyethyleneimine using a 96-well cell harvester. […] Radioactivity of the P2Y12 receptor or P2Y13 receptor bound to the membrane were measured using a scintillation TopCount instrument (PerkinElmer, Boston, MA, USA). […] Percent inhibition of binding was calculated as follows: (100—(specific binding in the presence of test material/specific binding in the absence of test material × 100)).

rhP2Y12 receptor [3] = target: T1, rhP2Y12 receptor; assay: rhP2Y12 receptor binding assay with [3H]ADP (HEK293T membranes); conditions: for IC50: 3 nM [3H]ADP, HEK293T-rhP2Y12 membranes
Protocol: as §1

rhP2Y13 receptor = target: T2, rhP2Y13 receptor (Homo sapiens, UniProt Q9BPV8); assay: rhP2Y13 receptor [3H]2-MeSADP binding assay (COS-7 membranes)
T2 construct: expressed in transfected cells
T2 sequence (Q9BPV8 1-354): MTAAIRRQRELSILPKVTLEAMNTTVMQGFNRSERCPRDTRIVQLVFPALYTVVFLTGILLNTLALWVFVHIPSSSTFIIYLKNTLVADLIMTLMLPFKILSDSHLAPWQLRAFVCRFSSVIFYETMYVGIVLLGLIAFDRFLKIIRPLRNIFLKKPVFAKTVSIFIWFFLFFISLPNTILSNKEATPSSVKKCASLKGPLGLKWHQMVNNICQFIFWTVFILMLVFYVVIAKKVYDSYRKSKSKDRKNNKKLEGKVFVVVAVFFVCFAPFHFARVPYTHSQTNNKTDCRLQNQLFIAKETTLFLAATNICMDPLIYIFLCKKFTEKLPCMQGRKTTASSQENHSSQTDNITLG
Protocol: as §1

human P2Y1 receptor = target: T3, human P2Y1 receptor (Homo sapiens, UniProt P47900); assay: P2Y1-mediated Ca2+ mobilization in NIH3T3-P2Y1 + Gq cells (FLIPR); type: cell-based; conditions: for inhibitory effect at P2Y1 receptor, in words: up to 100 μM
T3 construct: expressed in transfected cells
Protocol: Intracellular Ca^2+ mobilization was analyzed using the FLIPR 5 assay kit as previously described. Briefly, pDisplay-human P2Y1 DNA clone and pcDNA-Gq DNA clone were stably expressed in NIH3T3 cells. NIH3T3-P2Y1 + Gq cells (3 × 10^5 cells/mL) were seeded in a 96-well plate and allowed to adhere overnight. An equal volume of FLIPR 5 assay kit loading buffer (Molecular Devices) was added directly to the culture medium for 1 h at room temperature, followed by 20-min incubation after adding the test compounds. Changes in intracellular Ca^2+ were measured with a FlexStation II scanning fluorometer (Molecular Devices).

[4] = design: method as in PMID 25065553; conditions: side effect of ticagrelor; cited from earlier work
[5] = Homo sapiens, Platelet, 96-well plate
[6] = read-out: IC50 vs. [3H]-2-MeSADP

T1 sequence (Q9H244 whole entry): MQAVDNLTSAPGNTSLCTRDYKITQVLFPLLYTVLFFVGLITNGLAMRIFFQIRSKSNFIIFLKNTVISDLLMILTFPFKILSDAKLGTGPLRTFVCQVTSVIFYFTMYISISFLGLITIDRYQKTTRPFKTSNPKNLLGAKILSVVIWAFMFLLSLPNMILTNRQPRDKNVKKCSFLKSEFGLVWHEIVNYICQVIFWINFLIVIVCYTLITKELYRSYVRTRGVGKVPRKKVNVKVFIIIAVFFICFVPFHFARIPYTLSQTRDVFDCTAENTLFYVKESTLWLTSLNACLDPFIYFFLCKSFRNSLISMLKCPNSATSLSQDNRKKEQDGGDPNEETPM
T3 sequence (P47900 whole entry): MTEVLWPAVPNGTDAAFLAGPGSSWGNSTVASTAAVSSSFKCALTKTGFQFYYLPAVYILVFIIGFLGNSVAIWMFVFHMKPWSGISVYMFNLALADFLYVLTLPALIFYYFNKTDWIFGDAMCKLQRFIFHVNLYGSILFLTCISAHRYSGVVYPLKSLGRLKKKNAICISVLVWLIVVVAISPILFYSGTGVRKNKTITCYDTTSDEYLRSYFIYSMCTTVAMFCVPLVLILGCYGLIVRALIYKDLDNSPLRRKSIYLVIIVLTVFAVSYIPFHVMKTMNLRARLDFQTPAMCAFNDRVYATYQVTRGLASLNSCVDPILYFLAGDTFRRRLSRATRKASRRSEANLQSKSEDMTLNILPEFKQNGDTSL

Molecule | IC50 [1, 5] [µM] | IC50 (rhP2Y12 receptor [2]; [6]) [µM] | IC50 (rhP2Y12 receptor [3]; read-out: IC50 vs. [3H]ADP) | other results
Nc1ncnc2c1ncn2[C@@H]1O[C@H](COP(=O)(O)OP(=O)(O)OP(=O)(O)O)[C@@H](O)[C@H]1O [ATP, Adenosine 5′-triphosphate, reference compound] | 2.14 ± 0.51 | – | – | –
Cc1nc(N=Nc2cc([N+](=O)[O-])ccc2Cl)c(COP(=O)(O)O)c(C=O)c1O [MRS2211] | – | – | – | IC50 (rhP2Y13 receptor; 1 nM [3H]2-MeSADP, read-out: IC50, inhibition of [3H]2-MeS-ADP binding to rhP2Y13): 9.4 µM
CCCSc1nc(N[C@@H]2C[C@H]2c2ccc(F)c(F)c2)c2nnn([C@@H]3C[C@H](OCCO)[C@@H](O)[C@H]3O)c2n1 [Ticagrelor, reference compound] | 0.32 ± 0.02 | – | – | effect of pre-incubation / time on inhibition of ADP-induced platelet aggregation, in words [1]: time-dependent manner; IC50 (rhP2Y12 receptor [2]; IC50 vs. [3H]-2-MeSADP): 0.04 ± 0.02 µM; fold lower potency vs [3H]ADP than vs [3H]2-MeSADP (rhP2Y12 receptor [3]): 210 fold; IC50 (rhP2Y12 receptor [3]; IC50 vs. [3H]ADP): 8.4 ± 3.05 µM; inhibitory effect at P2Y1 receptor, in words (human P2Y1 receptor; 100 nM MRS2365): did not exert an inhibitory effect; selectivity, rhP2Y13 in comparison to rhP2Y12 (rhP2Y13 receptor; [3H]2-MeS-ADP binding): > 1000 fold; shortness of breath (dyspnea) incidence [4]: 14%
CSc1nc(N)c2ncn([C@H]3[C@H](O)[C@H](O)[C@]4(COP(=O)(O)OP(=O)(O)O)C[C@H]34)c2n1 [MRS2365] | – | – | – | EC50 (human P2Y1 receptor; Ca2+ mobilization, NIH3T3-P2Y1 + Gq cells, read-out: EC50 for P2Y1 receptor activation): 0.03 µM
CNc1ncnc2c1ncn2[C@H]1C[C@H](OP(=O)(O)O)[C@@H](COP(=O)(O)O)O1 [MRS2179, reference compound] | – | – | – | IC50 ([1]; 96-well plate): 1.1 ± 0.01 µM; IC50 (human P2Y1 receptor; 100 nM MRS2365, read-out: IC50, block of MRS2365 action at P2Y1 receptor): 0.66 µM
CSc1nc(N)c2ncn([C@@H]3O[C@H](COP(=O)(O)OP(=O)(O)O)[C@@H](O)[C@H]3O)c2n1 [Compound 2-MeSADP, reference compound] | – | 0.12 ± 0.02 | 17.2 ± 4.62 µM | –
Cn1sc(=O)c2cc(S(=O)(=O)NC3CC3)ccc21 [Compound B, N-cyclopropyl-1-methyl-3-oxo-2,1-benzothiazole-5-sulfonamide] | 9.49 ± 1.15 | > 30 | > 30 µM | –
Nc1ncnc2c1ncn2[C@@H]1O[C@H](COP(=O)(O)OP(=O)(O)O)[C@@H](O)[C@H]1O [[^3H]ADP, reference compound] | – | – | – | Kd (rhP2Y12 receptor [3]; [3H]ADP saturation binding, read-out: Kd of radioligand at rhP2Y12 (saturation, Scatchard)): 0.0097 µM
2-methylthioadenosine 5′-monophosphate [Compound 2-MeSAMP, reference compound] | – | – | – | IC50 ([1]; 96-well plate): 1.09 ± 0.16 µM; inhibitory effect at P2Y1 receptor, in words (human P2Y1 receptor; 100 nM MRS2365): did not exert an inhibitory effect
COc1ccc(C(=O)C=CSc2nncn2C)cc1 [Compound D, 1-(4-methoxyphenyl)-3-[(4-methyl-1,2,4-triazol-3-yl)sulfanyl]prop-2-en-1-one] | 6.08 ± 0.11 | > 30 | > 30 µM | –

The next lines start with results.

IC50 [1, 5] [µM] | IC50 (rhP2Y12 receptor [2]; [6]) [µM] | IC50 (rhP2Y12 receptor [3]; read-out: IC50 vs. [3H]ADP) | Molecule | other results
4.03 ± 0.95 | > 30 | > 30 µM | Cn1ncc(S(=O)(=O)Cc2ccccc2)c(Br)c1=O [Compound C, 5-benzylsulfonyl-4-bromo-2-methylpyridazin-3-one] | –
8.04 ± 0.51 | > 30 | > 30 µM | COc1cccc(-n2nc(C#N)c(Cl)cc2=O)c1 [Compound A, 4-chloro-1-(3-methoxyphenyl)-6-oxopyridazine-3-carbonitrile] | –
6.21 ± 0.71 | 15.5 | 8.3 µM and 8.33 µM | CN(C)c1ccc(C(c2cc3c(cc2O)OCO3)N2CCOCC2)cc1 (stereo not shown) [Compound E, 6-[(4-dimethylamino-phenyl)-morpholin-4-yl-methyl]-benzo[1,3]dioxol-5-ol] | effect of pre-incubation / time on inhibition of ADP-induced platelet aggregation, in words [1]: did not increase the potency; fold higher potency vs [3H]ADP than vs [3H]2-MeSADP (rhP2Y12 receptor [3]): 1.9 fold; inhibitory effect at P2Y1 receptor, in words (human P2Y1 receptor; 100 nM MRS2365): did not exert an inhibitory effect; inhibition of [3H]2-MeS-ADP binding to rhP2Y13, in words (rhP2Y13 receptor; up to 100 μM): did not inhibit
9.35 ± 2.19 | > 30 | > 30 µM | N#Cc1nccnc1S(=O)(=O)c1cccs1 [Compound F, 3-thiophen-2-ylsulfonylpyrazine-2-carbonitrile] | inhibition of [3H]-2-MeSADP binding to rhP2Y12, in words (rhP2Y12 receptor [2]): slightly inhibited; inhibition of [3H]ADP binding to rhP2Y12, in words (rhP2Y12 receptor [3]): slightly inhibited
– | 24.8 ± 2.09 | 0.19 ± 0.1 µM | Nc1ncnc2c1ncn2[C@@H]1O[C@H](COP(=O)(O)OP(=O)(O)O)[C@@H](O)[C@H]1O [ADP, Adenosine 5′-diphosphate, reference compound] | EC50 ([1]; Homo sapiens, Platelet, 96-well plate, read-out: EC50 of ADP, concentration-dependent platelet stimulation): 4.2 µM; fold higher potency of ADP than 2-MeSADP in competing with [3H]ADP (rhP2Y12 receptor [3]): 90 fold
